Source: patent publication US8466311B2, “Neuroprotective compositions and methods” (Sanford-Burnham Medical Research Institute, priority 2006, dated 2013)

Tests used:
[1] = tested on: HO-1 and γ-GCS; experiment: Phase 2 enzyme induction in brain (RT-PCR); format: in vivo, mouse; details: food containing 0.03% CA for a week
Description: RT-PCR. In order to examine phase 2 gene induction by CA in PC12h cells and brain lysates, RT-PCR of total RNA from cortical cultures was performed using the following primer pairs (Hosoya et al., J. Bioi. Chern. 29:27244-27250, 2005; Kobayashi et al., Mol. Cell. Biol. 26:221-229, 2006): CypA (89 bp), 5′-ACAGGTCCTGGCATCTTGTC-3′ (SEQ ID NO: 18)(sense) and 5′-[…] -3′ (SEQ ID NO: 19)(antisense); H0-1 (284 bp), 5′-CAGTCGCCTCCAGAGTTTCC -3′ (SEQ ID NO: 20)(sense) and 5′- TACAAGGAGGCCATCACCAGC-3′ (SEQ ID NO: 21)(antisense); GCL-M (280 bp), 5′- CTGCTAAACTGTTCATTGTAGG-3′ (SEQ ID NO: 22)(sense) and 5′- CTA TTG GGT TIT ACC TGT G-3′ (SEQ ID NO: 23)(antisense); GCL-C (213 bp), 5′- GTC TIC AGG TGA ACA TIC CAA GC-3′ (SEQ ID NO: 24)(sense) and 5′- TGTTCTTCAGGGGCTCCAGTC-3′ (SEQ 10 NO: 25)(antisense); and NQO1 (212 bp), 5′- GTG TAC AGC ATI GGC CAC AC-3′ (SEQ 10 NO: 26)(sense) and 5′AAATGATGGCCCACAGAAAG-3′ (SEQ ID NO: 27)(antisense).
Mice were allowed free access to food containing 0.03% CA for a week. Their brains were then removed, and extracts were prepared and measured for GSH and GSSG levels. Under these conditions, CA increased both total GSH+GSSG and the ratio of GSH/GSSG (FIG. 6). […] Therefore, we concluded that orally-administered CA could not only reach the brain but was also effective in activating potentially neuroprotective pathways.

[2] = tested on: HO-1 promoter; experiment: HO-1 promoter luciferase reporter (pHO15luc) in HT22 cells; format: cell-based, mouse
Description: (§1) Cell cultures, transfection, and glutathione (GSH) measurement. […] Transfection was performed with Lipofectamine 2000 (Invitrogen). In the reporter gene assays, firefly luciferase activity in cell lysates was measured with a luminometer (Promega). Total GSH (reduced and oxidized) was determined as described (Lee et al., Biochem. Biophys. Res. Commun. 280:286-292, 2001).
NEPPs activate HO-1 transcription through the ARE. We next studied activation of the HO-1 promoter and ARE by NEPP. In order to examine the induction of HO-1 protein by NEPP11, various concentrations of NEPP11 were added to HT22 cells for 24 h. Thereafter, cell lysates (10 μg per lane) were subjected to SDS-PAGE and probed with anti-HO-1 or anti-β-actin. […] Next, we studied transcriptional activation of the HO-1 gene by NEPP11 in HT22 cells, a differentiated neuronal cell line, transfected with pHO15luc, a luciferase reporter construct under the control of a 15-kb mouse HO-1 promoter fragment. HT22 cells were transfected with reporter cDNAs (1 μg per well), and various concentrations of NEPP11 were added to the cultures. After a 24-h incubation, cell lysates were subjected to luciferase reporter assays. […] Gong et al. (Antioxid. Redox Signal. 4:249-257, 2002) had identified two enhancer regions, E1 and E2, located upstream of the transcriptin initiation site by approximately 4 and 10 kb that contained the elements responsible for activation by 15-deoxy-Δ^12,14-PGJ2 (Gong et al., Antioxid. Redox Signal. 4:249-257, 2002). To determine the role of the E1 and E2 enhancers, we expressed a mutant promoter construct lacking both enhancer sites [pHO15lucΔ(E1+E2)]. The mutant was only minimally responsive to NEPP11 (1.8-fold induction).
(§2) Because the E1 and E2 regions also contain other enhancer elements, we tested the effects of NEPP11 (2 μM) on the expression of luciferase activity derived from these elements, including the cAMP-responsive element (CRE; p3xCREluc), AP-1 binding site (p3xAP1luc), NF-κB binding site (p3xNF-κBluc), NFAT-binding site (p3xNFATluc), ETS-binding site (p3xETSluc), and MEF2-binding site (p3xMEF2luc).

[3] = tested on: caspase-3; experiment: NMDA-induced caspase-3 activation; format: cell-based, rat; details: NEPP11 1 μM
Source text: Indeed, we found this to be the case.

[4] = tested on: AP-1 binding site; experiment: Enhancer element luciferase reporter p3xAP1luc; format: cell-based; details: NEPP11 2 μM
Description: as §2

[5] = tested on: NF-κB binding site; experiment: Enhancer element luciferase reporter p3xNF-κBluc; format: cell-based; details: NEPP11 2 μM
Description: as §2

[6] = tested on: ARE core element; experiment: ARE core element luciferase reporter (pAREluc) in HT22 cells; format: cell-based
Description: as §1
The E1 and E2 enhancer sites in the H0-1 promoter each contain an ARE. […] Biol. 24:36-45, 2004; Gong et al., Antioxid. Redox Signal. 4:249-257, 2002). Because NEPP compounds have an electrophilic carbon at position #11 and can bind cysteine residues of cellular proteins, we studied this pathway of ARE activation. To provide direct evidence that NEPP11 could activate the H0-1 enhancer through an ARE, we studied transcriptional activation of a wild-type ARE core element (pAREluc) and a mutated form (pGC-AREIuc) (Lee et al., Biochem, Biophys. Res. Commun. 280:286-292, 2001). cDNA constructs represented wild-type
(Kraft et al., J. Neurosci. 24:1101-1112, 2004).

[7] = tested on: MEF2-binding site; experiment: Enhancer element luciferase reporter p3xMEF2luc; format: cell-based; details: NEPP11 2 μM
Description: as §2

For `CC(C)c1cc2c(c(O)c1O)[C@@]1(C(=O)O)CCCC(C)(C)[C@@H]1CC2` [CA, carnosic acid], the “induction of phase 2 enzymes HO-1 and γ-GCS in brain” value [1] was “significant induction”.
With `COC(=O)CCCCC/C=C1/C(=O)C=C[C@H]1CCCCCCc1ccc(C)cc1` [NEPP11] the “expression of HO-1 transcription (pHO15luc luciferase activity)” value ([2]; HT22 cells, 24 h, dose-dependent) was “more than five-fold”, the “induction of mutant promoter pHO15lucΔ(E1+E2)” value ([2]; HT22 cells, construct lacking E1 and E2 enhancers) was 1.8 fold and the “induction of pHO15luc reporter activity” value ([2]; NEPP11 2 μM, used for comparison) was “greater than five-fold”. For the same compound, the “activation of pHO15luc with co-transfection of pKeap1(C151S)” value ([2]; not depressed by wild-type pKeap1) was “significantly depressed”, the “NMDA-induced caspase-3 activation” value [3] was “inhibited” and the “activity of p3xAP1luc” value [4] was “slightly depressed”. For the same compound, the p3xNF-κBluc expression [5] was “minimally activated”, the “mutant ARE (pGC-AREluc) transcriptional activity” value [6] was “unaffected” and the “wild-type ARE (pAREluc) transcriptional activity” value ([6]; dose-dependent) was “up to seven-fold”. For the same compound, the “activity of p3xMEF2luc” value [7] was “no effect”.
